Laboratory results as given in patent US11459315B2, “Modulators of methyl modifying enzymes, compositions and uses thereof” (Constellation Pharmaceuticals, Inc., priority 2017, dated 2022).
pEC50, pIC50: −log10 of the molar value. Like-named read-outs stand apart in the source and are kept apart here.

What was measured:
[1] = tested on: H3K27me3 mark in HeLa cells (EZH2); assay: H3K27me3 Alpha Hela Assay (AlphaLISA); type: cell-based; conditions: Homo sapiens, HeLa, 72 h, HeLa cells, 72 hrs; read-out: EZH2 Cell H3K27me3 Alpha HeLa (EC50 K27me3)
Outline: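 HeLa cells (1,000/well) treated with ten 3-fold compound doses for 72 h at 37 °C; lysates extracted and H3K27me3 detected by AlphaLISA with anti-K27me3 acceptor beads, biotinylated anti-H3 (3 nM) and streptavidin donor beads. EC50 from DMSO-normalized dose-response curves; duplicate plate assessed viability.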

PRC2 containing wt EZH2 = PRC2 containing wt EZH2 (Homo sapiens (Human), UniProt Q15910); assay: EZH2 biochemical assay (IC50), 3H-SAM incorporation into biotinylated H3 peptide; conditions: 30 pM PRC2 containing wt EZH2, 3-5 h pre-incubation
Sequence of PRC2 containing wt EZH2 (Q15910 whole entry): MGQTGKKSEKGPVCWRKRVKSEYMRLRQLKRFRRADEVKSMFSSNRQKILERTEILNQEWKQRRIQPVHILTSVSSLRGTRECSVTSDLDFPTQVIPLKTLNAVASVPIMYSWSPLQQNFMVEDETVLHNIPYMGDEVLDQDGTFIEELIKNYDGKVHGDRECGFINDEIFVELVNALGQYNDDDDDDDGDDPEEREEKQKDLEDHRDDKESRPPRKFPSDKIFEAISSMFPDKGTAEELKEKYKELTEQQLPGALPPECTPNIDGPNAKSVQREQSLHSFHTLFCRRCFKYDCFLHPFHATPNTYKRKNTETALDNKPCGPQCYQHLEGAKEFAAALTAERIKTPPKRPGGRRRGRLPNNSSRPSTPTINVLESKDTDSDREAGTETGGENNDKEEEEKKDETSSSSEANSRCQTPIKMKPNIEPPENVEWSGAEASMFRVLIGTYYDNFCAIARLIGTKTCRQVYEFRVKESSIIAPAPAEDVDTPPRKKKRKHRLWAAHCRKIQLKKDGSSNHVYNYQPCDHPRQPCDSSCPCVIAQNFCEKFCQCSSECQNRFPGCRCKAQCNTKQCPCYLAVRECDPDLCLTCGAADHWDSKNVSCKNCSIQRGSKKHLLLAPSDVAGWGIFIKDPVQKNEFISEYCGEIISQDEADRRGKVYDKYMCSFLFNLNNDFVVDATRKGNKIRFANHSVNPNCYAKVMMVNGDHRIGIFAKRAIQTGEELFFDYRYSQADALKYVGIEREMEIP
Sequence of PRC2 containing wt EZH2 (O75530 whole entry partner): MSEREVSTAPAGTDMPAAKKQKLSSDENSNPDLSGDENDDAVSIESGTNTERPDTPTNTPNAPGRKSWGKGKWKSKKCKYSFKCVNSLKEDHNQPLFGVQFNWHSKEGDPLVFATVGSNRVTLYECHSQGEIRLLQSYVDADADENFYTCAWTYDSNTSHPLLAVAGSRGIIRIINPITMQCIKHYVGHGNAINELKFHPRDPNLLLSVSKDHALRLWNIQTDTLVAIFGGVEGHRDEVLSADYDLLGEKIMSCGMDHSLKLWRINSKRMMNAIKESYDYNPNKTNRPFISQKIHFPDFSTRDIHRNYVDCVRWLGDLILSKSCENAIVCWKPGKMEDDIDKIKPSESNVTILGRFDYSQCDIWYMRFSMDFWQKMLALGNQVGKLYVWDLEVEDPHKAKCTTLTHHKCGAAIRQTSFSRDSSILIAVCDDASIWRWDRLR
Sequence of PRC2 containing wt EZH2 (Q15022 whole entry partner): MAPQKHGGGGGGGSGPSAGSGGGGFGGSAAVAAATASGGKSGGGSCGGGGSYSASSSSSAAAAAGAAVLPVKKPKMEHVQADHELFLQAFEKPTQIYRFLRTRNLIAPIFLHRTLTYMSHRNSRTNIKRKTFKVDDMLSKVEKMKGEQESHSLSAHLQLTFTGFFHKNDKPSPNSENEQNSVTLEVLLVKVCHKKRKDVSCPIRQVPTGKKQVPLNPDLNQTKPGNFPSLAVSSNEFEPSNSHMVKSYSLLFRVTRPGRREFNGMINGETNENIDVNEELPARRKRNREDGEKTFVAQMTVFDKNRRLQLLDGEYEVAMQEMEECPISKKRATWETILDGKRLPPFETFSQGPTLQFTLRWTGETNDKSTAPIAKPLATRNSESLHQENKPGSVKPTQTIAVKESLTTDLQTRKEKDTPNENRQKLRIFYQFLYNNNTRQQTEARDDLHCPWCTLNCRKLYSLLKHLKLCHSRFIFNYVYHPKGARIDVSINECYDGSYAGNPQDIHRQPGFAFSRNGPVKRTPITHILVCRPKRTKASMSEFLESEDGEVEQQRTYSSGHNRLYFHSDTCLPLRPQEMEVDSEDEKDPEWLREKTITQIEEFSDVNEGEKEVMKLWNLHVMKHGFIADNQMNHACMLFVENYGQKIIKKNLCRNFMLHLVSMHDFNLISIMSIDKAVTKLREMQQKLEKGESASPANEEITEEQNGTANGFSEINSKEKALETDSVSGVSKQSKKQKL
Sequence of PRC2 containing wt EZH2 (Q09028 whole entry partner): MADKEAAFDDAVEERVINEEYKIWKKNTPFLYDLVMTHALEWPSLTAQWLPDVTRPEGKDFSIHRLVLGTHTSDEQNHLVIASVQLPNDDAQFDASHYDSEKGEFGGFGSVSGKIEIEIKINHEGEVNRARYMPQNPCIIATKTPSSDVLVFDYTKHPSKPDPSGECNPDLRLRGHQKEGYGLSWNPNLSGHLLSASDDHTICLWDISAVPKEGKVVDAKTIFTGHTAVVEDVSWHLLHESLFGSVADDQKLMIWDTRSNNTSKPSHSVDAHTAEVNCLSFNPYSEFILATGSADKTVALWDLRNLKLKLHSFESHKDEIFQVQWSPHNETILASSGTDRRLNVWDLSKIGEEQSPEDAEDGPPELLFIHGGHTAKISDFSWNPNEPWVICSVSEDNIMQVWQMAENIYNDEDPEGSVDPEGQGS
Sequence of PRC2 containing wt EZH2 (Q6ZN18 whole entry partner): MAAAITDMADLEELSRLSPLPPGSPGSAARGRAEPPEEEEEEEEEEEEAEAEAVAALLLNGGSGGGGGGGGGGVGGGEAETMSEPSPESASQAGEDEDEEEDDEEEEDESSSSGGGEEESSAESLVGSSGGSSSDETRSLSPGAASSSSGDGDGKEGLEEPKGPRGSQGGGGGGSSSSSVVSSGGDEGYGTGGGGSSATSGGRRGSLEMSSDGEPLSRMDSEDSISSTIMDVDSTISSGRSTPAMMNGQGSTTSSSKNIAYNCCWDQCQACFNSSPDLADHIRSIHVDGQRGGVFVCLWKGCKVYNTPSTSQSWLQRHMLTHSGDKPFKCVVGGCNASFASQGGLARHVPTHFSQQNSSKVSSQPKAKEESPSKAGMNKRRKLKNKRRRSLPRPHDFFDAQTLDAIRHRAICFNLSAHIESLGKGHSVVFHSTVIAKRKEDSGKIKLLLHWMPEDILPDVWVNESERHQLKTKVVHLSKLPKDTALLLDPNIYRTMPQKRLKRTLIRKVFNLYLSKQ
Outline: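 Activity was measured as ³H-methyl transfer to a biotinylated H3K27me1 peptide over 18-22 h at room temperature, with capture on streptavidin flash plates. The 30 pM wt-EZH2 PRC2 complex was first pre-incubated 3-5 h with compound, 450 nM SAM/450 nM ³H-SAM and 2 µM H3K27me3 activator (pH 8.5, 0.8% DMSO). Four-parameter fits gave IC50.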

| SMILES | pEC50 [1] | pIC50 (PRC2 containing wt EZH2; read-out: EZH2 (IC50)) | pIC50 (PRC2 containing wt EZH2; EZH2 (IC50)) |
| --- | --- | --- | --- |
| CC[C@H](C1CCC(N2CC(OC(F)F)C2)CC1)n1c(C)c(C(=O)NCc2c(SC)cc(C)[nH]c2=O)c2cccnc21 (stereo partly drawn) [Example 118, 1-((R)-1-(4-(3-(difluoromethoxy)azetidin-1-yl)cyclohexyl)propyl)-2-methyl-N-((6-methyl-4-(methylthio)-2-oxo-1,2-dihydropyridin-3-yl)methyl)-1H-pyrrolo[2,3-b]pyridine-3-carboxamide] | > 8.00 | > 9.30 | – |
| CSc1cc(C)[nH]c(=O)c1CNC(=O)c1c(C)n([C@H](C)C2CCC(N3CC[C@@H](OC(F)F)C3)CC2)c2ncccc12 (stereo partly drawn) [Example 119, 1-((R)-1-(4-((R)-3-(difluoromethoxy)pyrrolidin-1-yl)cyclohexyl)ethyl)-2-methyl-N-((6-methyl-4-(methylthio)-2-oxo-1,2-dihydropyridin-3-yl)methyl)-1H-pyrrolo[2,3-b]pyridine-3-carboxamide] | > 8.00 | > 9.30 | – |
| CSc1cc(C)[nH]c(=O)c1CNC(=O)c1c(C)n([C@H](C)C2CCC(N3CC[C@H](OC(F)F)C3)CC2)c2ncccc12 (stereo partly drawn) [Example 120, 1-((R)-1-(4-((S)-3-(difluoromethoxy)pyrrolidin-1-yl)cyclohexyl)ethyl)-2-methyl-N-((6-methyl-4-(methylthio)-2-oxo-1,2-dihydropyridin-3-yl)methyl)-1H-pyrrolo[2,3-b]pyridine-3-carboxamide] | 7.00 to 8.00 | > 9.30 | – |
| CSc1cc(C)[nH]c(=O)c1CNC(=O)c1c(C)n([C@H](C)C2CCC(N3CC(OC(F)F)C3)CC2)c2ncc(F)cc12 (stereo partly drawn) [Example 122, 1-((R)-1-(4-(3-(difluoromethoxy)azetidin-1-yl)cyclohexyl)ethyl)-5-fluoro-2-methyl-N-((6-methyl-4-(methylthio)-2-oxo-1,2-dihydropyridin-3-yl)methyl)-1H-pyrrolo[2,3-b]pyridine-3-carboxamide] | > 8.00 | > 9.30 | – |
| CSc1cc(C)[nH]c(=O)c1CNC(=O)c1c(C)n([C@H](C)C2CCC(N3CC(OC4CC4)C3)CC2)c2ncc(Cl)cc12 (stereo partly drawn) [Example 124, 5-chloro-1-((R)-1-(4-(3-cyclopropoxyazetidin-1-yl)cyclohexyl)ethyl)-2-methyl-N-((6-methyl-4-(methylthio)-2-oxo-1,2-dihydropyridin-3-yl)methyl)-1H-pyrrolo[2,3-b]pyridine-3-carboxamide] | > 8.00 | > 9.30 | – |
| CSc1cc(C)[nH]c(=O)c1CNC(=O)c1c(C)n([C@H](C)C2CCC(N3CC(OC4CCC4)C3)CC2)c2ncc(Cl)cc12 (stereo partly drawn) [Example 126, 5-chloro-1-((R)-1-(4-(3-cyclobutoxyazetidin-1-yl)cyclohexyl)ethyl)-2-methyl-N-((6-methyl-4-(methylthio)-2-oxo-1,2-dihydropyridin-3-yl)methyl)-1H-pyrrolo[2,3-b]pyridine-3-carboxamide] | > 8.00 | > 9.30 | – |
| CSc1cc(C)[nH]c(=O)c1CNC(=O)c1c(C)n([C@H](C)C2CCN(CC(F)(F)F)CC2)c2cc(Br)ccc12 [Example 127, (R)-6-bromo-2-methyl-N-((6-methyl-4-(methylthio)-2-oxo-1,2-dihydropyridin-3-yl)methyl)-1-(1-(1-(2,2,2-trifluoroethyl)piperidin-4-yl)ethyl)-1H-indole-3-carboxamide] | 7.00 to 8.00 | – | > 9.30 |
| CSc1cc(C)[nH]c(=O)c1CNC(=O)c1c(C)n([C@H](C)C2CCN(CC(F)(F)F)CC2)c2cccc(Br)c12 [Example 128, (R)-4-bromo-2-methyl-N-((6-methyl-4-(methylthio)-2-oxo-1,2-dihydropyridin-3-yl)methyl)-1-(1-(1-(2,2,2-trifluoroethyl)piperidin-4-yl)ethyl)-1H-indole-3-carboxamide] | 7.00 to 8.00 | – | 8.30 to 9.30 |
